In ChEMBL document CHEMBL1134210, “Synthesis and biological activities of potential metabolites of the non-nucleoside reverse transcriptase inhibitor efavirenz” (Bioorg Med Chem Lett, 2001) one finds IC90 and IC50 data, which are given here for seven compounds.

The subject of one assay is Nucleic Acid. The assay can be described thus: Inhibitory activity against RNA. Type of assay: functional.
On to `O=C1Nc2ccc(Cl)cc2[C@@](C#CC2CC2)(C(F)(F)F)O1`, for which the 90% effect concentration (IC90) (usually the concentration needed for an effect of 90%) is 0.0017 µM.

Regarding `O=C1Nc2c(OS(=O)(=O)O)cc(Cl)cc2[C@@](C#CC2CC2)(C(F)(F)F)O1.c1ccncc1`, the IC90 came to 1.01 µM.

The compound `O=C1Nc2cc(O)c(Cl)cc2C(C#CC2CC2)(C(F)(F)F)O1` (stereo not drawn) returned an IC90 of 0.422 µM.

In the case of `O=C1Nc2ccc(Cl)cc2C(C#CC2(O)CC2)(C(F)(F)F)O1` (stereo not drawn), the concentration for an effect of 90% (IC90) is 0.033 µM.

With `O=C1Nc2c(O[C@@H]3O[C@H](C(=O)O)[C@@H](O)[C@H](O)[C@H]3O)cc(Cl)cc2[C@@](C#CC2CC2)(C(F)(F)F)O1`, the IC90 is > 0.985 µM.

The compound `O=C1Nc2c(O)cc(Cl)cc2[C@@](C#CC2CC2)(C(F)(F)F)O1` gave an IC90 of 0.063 µM.

For `O=C1Nc2c(O)cc(Cl)cc2C(C#CC2CC2)(C(F)(F)F)O1` (single isomer, unassigned), the IC90 was > 1.51 µM.

The next assay deals with Human immunodeficiency virus type 1 reverse transcriptase (Human immunodeficiency virus 1, UniProt Q72547). The assay is described as follows: Inhibitory activity against HIV-1 reverse transcriptase.
As for `O=C1Nc2c(OS(=O)(=O)O)cc(Cl)cc2[C@@](C#CC2CC2)(C(F)(F)F)O1.c1ccncc1`, the IC50 (commonly the concentration that gives 50% inhibition) is 12.5 µM.

As for `O=C1Nc2cc(O)c(Cl)cc2C(C#CC2CC2)(C(F)(F)F)O1` (stereo not drawn), half-maximal inhibition (IC50) was put at 2.45 µM.

On to `O=C1Nc2ccc(Cl)cc2C(C#CC2(O)CC2)(C(F)(F)F)O1` (stereo not drawn), for which 1.98 µM corresponded to half-maximal inhibition (IC50).

In the case of `O=C1Nc2c(O[C@@H]3O[C@H](C(=O)O)[C@@H](O)[C@H](O)[C@H]3O)cc(Cl)cc2[C@@](C#CC2CC2)(C(F)(F)F)O1`, the midpoint of inhibition, the IC50, lay at 9.49 µM.

For `O=C1Nc2c(O)cc(Cl)cc2[C@@](C#CC2CC2)(C(F)(F)F)O1`, the IC50 was 2.34 µM.

For `O=C1Nc2c(O)cc(Cl)cc2C(C#CC2CC2)(C(F)(F)F)O1` (single isomer, unassigned), the IC50 is > 12.5 µM.
